Reference: patent publication US9073916B2, “Prodrug forms of kinase inhibitors and their use in therapy” (AUCKLAND UNISERVICES LIMITED, priority 2009, dated 2015)
“And” between values parts separate entries of the source, which are not always exact repeats. Identical values can stand only once. Like-named read-outs stand apart in the source and are kept apart here.

Experiments:
[1] = target: T1, erbB2 (Homo sapiens, UniProt P04626); experiment: Isolated enzyme inhibition (Invitrogen Z′-LYTE kinase assay); format: biochemical; settings: 10 μM ATP, duplicate
T1 sequence (P04626 23-1255): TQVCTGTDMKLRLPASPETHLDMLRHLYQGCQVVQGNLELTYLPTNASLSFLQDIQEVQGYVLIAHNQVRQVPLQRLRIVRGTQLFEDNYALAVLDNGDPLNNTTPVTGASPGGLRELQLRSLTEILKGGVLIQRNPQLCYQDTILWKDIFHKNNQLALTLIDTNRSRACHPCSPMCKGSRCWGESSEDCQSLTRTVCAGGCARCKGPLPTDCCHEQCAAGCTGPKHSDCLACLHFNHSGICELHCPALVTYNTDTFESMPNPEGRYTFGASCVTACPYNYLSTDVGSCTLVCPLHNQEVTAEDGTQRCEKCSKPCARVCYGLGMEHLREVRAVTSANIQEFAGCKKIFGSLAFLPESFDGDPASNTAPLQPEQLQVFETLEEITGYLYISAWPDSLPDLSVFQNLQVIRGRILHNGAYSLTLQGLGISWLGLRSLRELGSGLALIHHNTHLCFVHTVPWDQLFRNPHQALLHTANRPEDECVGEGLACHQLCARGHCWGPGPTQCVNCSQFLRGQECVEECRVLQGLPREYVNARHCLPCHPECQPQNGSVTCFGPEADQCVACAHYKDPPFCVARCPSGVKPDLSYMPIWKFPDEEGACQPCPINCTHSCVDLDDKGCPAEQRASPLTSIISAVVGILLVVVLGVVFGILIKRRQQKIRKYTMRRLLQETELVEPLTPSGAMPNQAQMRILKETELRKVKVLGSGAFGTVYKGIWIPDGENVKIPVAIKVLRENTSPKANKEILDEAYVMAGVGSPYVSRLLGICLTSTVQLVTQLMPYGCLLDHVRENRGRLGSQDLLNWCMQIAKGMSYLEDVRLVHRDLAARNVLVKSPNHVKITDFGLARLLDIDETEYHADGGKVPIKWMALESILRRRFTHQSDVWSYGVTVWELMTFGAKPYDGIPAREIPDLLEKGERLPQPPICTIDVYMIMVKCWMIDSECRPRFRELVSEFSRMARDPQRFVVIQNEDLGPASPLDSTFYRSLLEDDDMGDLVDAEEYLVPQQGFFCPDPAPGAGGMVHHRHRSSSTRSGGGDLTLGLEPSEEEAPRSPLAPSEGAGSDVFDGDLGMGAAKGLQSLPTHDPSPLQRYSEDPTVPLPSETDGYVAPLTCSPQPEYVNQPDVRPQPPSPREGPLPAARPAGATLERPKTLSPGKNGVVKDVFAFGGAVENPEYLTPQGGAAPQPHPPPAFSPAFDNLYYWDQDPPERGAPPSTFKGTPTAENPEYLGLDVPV
Description: (§1) The compounds of Table 1 were tested for their ability to inhibit erbB1, erbB1^T790M, erbB2 and erbB4 in an isolated enzyme assay. This assay utilises synthetic FRET-capable peptide substrates. Phosphorylation of these substrates protects them from cleavage by a development reagent, leaving their FRET-capabilities intact. […] As a further consideration, for compounds capable of irreversible inhibition of an enzyme, the IC50 reflects both reversible and irreversible binding to the enzyme.

[2] = target: erbB4 (Homo sapiens, UniProt Q15303); experiment: as above; format: biochemical; settings: 10 μM ATP, duplicate
Sequence of erbB4 (Q15303 26-1308): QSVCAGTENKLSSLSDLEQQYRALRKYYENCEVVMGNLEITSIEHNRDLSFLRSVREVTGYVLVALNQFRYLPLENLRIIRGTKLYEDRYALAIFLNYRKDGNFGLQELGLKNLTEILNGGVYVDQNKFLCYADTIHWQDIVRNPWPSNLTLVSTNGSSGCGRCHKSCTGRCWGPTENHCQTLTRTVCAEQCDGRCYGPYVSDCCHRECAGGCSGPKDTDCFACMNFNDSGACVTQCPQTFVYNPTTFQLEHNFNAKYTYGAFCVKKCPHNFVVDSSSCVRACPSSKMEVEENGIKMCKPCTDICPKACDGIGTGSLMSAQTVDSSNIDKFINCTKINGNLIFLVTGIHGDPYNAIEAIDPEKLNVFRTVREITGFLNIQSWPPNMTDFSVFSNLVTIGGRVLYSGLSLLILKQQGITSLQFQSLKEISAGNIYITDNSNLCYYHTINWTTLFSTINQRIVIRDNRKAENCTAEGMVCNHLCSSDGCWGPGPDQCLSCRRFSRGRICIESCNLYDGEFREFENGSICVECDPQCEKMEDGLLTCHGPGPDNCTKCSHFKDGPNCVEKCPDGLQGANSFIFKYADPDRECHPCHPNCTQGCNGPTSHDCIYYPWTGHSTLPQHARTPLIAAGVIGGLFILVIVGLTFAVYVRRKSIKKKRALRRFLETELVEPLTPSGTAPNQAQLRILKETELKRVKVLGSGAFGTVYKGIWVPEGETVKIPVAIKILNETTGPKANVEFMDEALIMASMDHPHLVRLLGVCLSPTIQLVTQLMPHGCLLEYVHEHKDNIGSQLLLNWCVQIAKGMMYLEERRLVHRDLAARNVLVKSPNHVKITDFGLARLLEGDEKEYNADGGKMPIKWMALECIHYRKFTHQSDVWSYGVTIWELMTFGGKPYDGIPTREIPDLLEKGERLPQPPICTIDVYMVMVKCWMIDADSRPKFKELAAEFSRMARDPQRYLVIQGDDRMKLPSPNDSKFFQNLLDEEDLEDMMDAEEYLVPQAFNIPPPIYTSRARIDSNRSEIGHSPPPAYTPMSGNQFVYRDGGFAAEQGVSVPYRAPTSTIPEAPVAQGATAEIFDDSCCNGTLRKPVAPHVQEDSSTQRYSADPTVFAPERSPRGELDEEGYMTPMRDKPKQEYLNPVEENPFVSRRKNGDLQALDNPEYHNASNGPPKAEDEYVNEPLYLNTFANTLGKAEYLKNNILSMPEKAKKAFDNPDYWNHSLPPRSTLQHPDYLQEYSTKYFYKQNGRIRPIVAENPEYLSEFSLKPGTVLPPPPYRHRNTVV
Description: as §1

[3] = Steady state radiolytic reduction by the CO2.− radical with HPLC-MS; format: physicochemical
[4] = Pulse radiolysis (E(1) and fragmentation rate); format: physicochemical; settings: determined against methylviologen
[5] = target: T2, erbB1 (Homo sapiens, UniProt P00533); experiment: Cellular erbB1 inhibition under oxic and hypoxic conditions in A431 cells; format: cell-based; settings: 1 μM, 4 hour exposure oxic or hypoxic, washed, EGF stimulated
T2 sequence (P00533 25-1210): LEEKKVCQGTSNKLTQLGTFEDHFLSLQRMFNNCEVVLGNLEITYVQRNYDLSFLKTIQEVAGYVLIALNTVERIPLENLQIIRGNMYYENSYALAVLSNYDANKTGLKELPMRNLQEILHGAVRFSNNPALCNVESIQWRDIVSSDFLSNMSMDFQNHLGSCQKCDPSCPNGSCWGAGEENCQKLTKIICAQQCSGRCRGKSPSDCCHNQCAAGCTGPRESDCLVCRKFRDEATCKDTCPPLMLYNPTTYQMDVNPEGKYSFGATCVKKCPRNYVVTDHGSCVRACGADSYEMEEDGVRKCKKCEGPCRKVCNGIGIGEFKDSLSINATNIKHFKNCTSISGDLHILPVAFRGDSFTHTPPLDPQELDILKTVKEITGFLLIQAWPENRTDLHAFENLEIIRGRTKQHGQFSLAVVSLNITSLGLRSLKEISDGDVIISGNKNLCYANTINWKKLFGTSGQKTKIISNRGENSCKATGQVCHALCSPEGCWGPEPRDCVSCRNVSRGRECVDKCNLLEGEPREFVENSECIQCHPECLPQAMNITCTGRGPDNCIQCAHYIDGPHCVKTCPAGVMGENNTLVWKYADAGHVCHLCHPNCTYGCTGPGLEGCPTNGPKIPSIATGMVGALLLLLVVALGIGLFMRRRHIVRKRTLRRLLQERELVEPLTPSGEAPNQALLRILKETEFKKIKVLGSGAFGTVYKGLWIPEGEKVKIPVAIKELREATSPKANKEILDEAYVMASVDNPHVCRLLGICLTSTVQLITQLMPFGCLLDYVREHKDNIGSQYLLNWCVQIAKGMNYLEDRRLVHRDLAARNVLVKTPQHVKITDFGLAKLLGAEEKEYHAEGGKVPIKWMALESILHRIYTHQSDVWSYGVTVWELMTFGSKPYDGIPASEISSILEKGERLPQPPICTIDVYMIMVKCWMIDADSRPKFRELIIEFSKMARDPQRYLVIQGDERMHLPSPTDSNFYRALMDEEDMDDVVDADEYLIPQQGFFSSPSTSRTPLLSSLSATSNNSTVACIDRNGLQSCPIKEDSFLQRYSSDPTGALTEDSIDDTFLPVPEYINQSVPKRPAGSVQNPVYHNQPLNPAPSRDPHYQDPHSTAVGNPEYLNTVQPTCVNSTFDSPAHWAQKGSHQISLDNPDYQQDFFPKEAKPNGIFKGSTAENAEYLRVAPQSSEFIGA
Description: Human A431 epidermoid carcinoma cells were seeded at 400,000 cells/well in a 6 well plate in alpha minimal essential media (αMEM) containing 10% fetal bovine serum, 10 mM D-Glucose and 0.2 mM 2′-deoxycytidine. A431 cells were allowed to attach for 90 minutes under oxic or anoxic conditions, then exposed to test compounds at a concentration of 1 uM for a further 4 hours under oxic or anoxic conditions. The cells were then washed free of test compounds three times using serum free media and then returned to the incubator under oxic conditions overnight. The cells were then stimulated with 100 ng/mL EGF for 15 minutes before the medium was aspirated and the cells were washed with ice-cold PBS.

[6] = test system: SW620 cells; experiment: Cellular growth inhibition (sulforhodamine B); format: cell-based, Human; settings: Table 3; for IC50: Homo sapiens, SW-620
[7] = target: erbB1^T790M (Homo sapiens, UniProt P00533, T790M); experiment: Isolated enzyme inhibition (Invitrogen Z′-LYTE kinase assay); format: biochemical; settings: 10 μM ATP, duplicate
Sequence of erbB1^T790M (P00533 25-1210 T790M): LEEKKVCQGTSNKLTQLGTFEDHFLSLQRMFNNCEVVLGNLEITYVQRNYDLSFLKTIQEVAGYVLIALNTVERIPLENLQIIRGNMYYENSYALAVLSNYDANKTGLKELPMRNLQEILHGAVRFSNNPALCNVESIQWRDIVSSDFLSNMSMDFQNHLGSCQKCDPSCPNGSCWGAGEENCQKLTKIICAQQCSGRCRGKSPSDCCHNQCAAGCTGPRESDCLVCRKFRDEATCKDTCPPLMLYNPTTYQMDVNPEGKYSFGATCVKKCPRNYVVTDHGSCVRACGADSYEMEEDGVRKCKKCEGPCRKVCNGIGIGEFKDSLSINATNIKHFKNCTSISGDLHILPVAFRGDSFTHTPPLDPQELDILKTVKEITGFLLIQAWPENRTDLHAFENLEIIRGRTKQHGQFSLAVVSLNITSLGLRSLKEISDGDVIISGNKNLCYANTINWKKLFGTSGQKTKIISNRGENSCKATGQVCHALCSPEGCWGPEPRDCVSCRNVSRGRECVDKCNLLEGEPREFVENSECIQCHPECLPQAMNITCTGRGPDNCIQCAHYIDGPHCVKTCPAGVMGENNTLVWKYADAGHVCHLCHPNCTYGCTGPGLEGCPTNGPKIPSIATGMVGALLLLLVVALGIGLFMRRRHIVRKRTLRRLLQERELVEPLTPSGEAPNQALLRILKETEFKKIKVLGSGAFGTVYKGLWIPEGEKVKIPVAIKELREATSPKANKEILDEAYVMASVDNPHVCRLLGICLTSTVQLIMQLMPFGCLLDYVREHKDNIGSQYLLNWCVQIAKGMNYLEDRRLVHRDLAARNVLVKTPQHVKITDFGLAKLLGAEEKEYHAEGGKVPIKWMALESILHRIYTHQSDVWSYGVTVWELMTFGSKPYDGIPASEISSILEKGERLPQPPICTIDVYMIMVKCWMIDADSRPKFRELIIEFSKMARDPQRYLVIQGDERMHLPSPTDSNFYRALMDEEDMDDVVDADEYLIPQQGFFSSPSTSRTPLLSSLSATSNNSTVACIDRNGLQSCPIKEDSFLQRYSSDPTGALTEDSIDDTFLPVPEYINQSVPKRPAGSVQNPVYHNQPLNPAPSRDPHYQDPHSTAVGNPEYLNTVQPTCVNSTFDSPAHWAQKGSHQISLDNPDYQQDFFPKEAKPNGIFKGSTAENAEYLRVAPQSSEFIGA

[8] = target: T2, erbB1; experiment: as above; format: biochemical; settings: 10 μM ATP, duplicate
[9] = test system: A431 xenografts; experiment: In vivo efficacy in A431 xenografts; settings: A431 xenografts
Description: (§2) Specific pathogen-free homozygous female CD-1 nude mice (Charles River Laboratories, Wilmington, Mass.) were inoculated subcutaneously with a single cell suspension of A431 cells (5×10^6 cells/100 pt; right flank). When A431 tumour xenografts were established (typically 6-10 days) mice were randomized to treatment groups. All compounds were prepared in lactate buffer (pH4). Mice were dosed by intraperitoneal injection (0.01-0.03 ml/g) using the stated schedules and dose levels. Tumour size and body weights were measured at regular intervals. Tumour volume was calculated as π (length×width^2)/6. […] Differences in RTV^4 were tested for statistical difference by Mann Whitney U test using SigmaStat v3.5.

[10] = test system: A431 cells; experiment: Cellular growth inhibition (sulforhodamine B); settings: for IC50: Homo sapiens
Description: (§3) Human A431, BT474, SKBR3, SKOV3, SW620, H1975 and HT29 carcinoma cells in log phase exponential growth in alpha minimal essential media (αMEM) containing 5% fetal bovine serum (FBS), were harvested by trypsinisation (1× trypsin/EDTA, Gibco Brl), counted, and seeded into 96 well plates (Nunc) at cell densities ranging from 800-1500 cells/well. Half of the cell samples were seeded into plates that were pre-equilibrated and held in an anoxic environment (90% N2, 5% H2, 5% CO2, 37° Q Anaerobic chamber, Coy Laboratory Products). […] At the end of this period the anoxic plates were recovered from the anaerobic camber and held under normoxia in a standard CO2 incubator (37° C.) for 20 hours. All plates were washed free of compound and cells were allowed to proliferate for a further 4 days in αMEM containing 5% FBS+antibiotics. Cells were fixed in trichloroacteic acid (30 min), washed and stained with sulforhodamine B (SRB, 60 min) prior to washing in acidified water. SRB was solubilised and absorption read at 450 nm to calculate cell densities. Inhibition of proliferation was calculated relative to untreated control wells.
(§4) Human A431, H1975 and SKOV3 carcinoma cells in log phase exponential growth in alpha minimal essential media (αMEM) containing 5% fetal bovine serum (FBS), were harvested by trypsinisation (1× trypsin/EDTA, Gibco Brl), counted, and seeded into 96 well plates (Nunc) at cell densities ranging from 800-1500 cells/well. Half of the cell samples were seeded into plates that were pre-equilibrated and held in an anoxic environment (90% N2, 5% H2, 5% CO2, 37° C.; Anaerobic chamber, Coy Laboratory Products). […] At the end of this period the anoxic plates were recovered from the anaerobic camber and held under normoxia in a standard CO2 incubator (37° C.) for 20 hours. All plates were washed free of compound and cells were allowed to proliferate for a further 4 days in αMEM containing 5% FBS+antibiotics. Cells were fixed in trichloroacteic acid (30 min), washed and stained with sulforhodamine B (SRB, 60 min) prior to washing in acidified water. SRB was solubilised and absorption read at 450 nm to calculate cell densities. Inhibition of proliferation was calculated relative to untreated control wells.

[11] = test system: SKBR3 cells; experiment: Cellular growth inhibition (sulforhodamine B); format: cell-based, Human; settings: Table 3; for IC50: Homo sapiens, SK-BR-3
[12] = target: T2, erbB1; experiment: Inhibition of erbB1 autophosphorylation in EGF-stimulated intact A431 cells (Western blot)
[13] = in vivo; settings: mouse, plasma, ip, 42 umol/kg
[14] = in vivo; settings: female, CD-1 nude, mouse, ip
[15] = target: T2, erbB1; experiment: Cellular erbB1 inhibition: irreversibility wash-out assay in A431 cells
[16] = test system: SKOV3 xenografts; experiment: In vivo efficacy in SKOV3 xenografts; set-up: species or system mice
Description: as §2, with “NIH-III” for “CD-1”, “SKOV3” for “A431”, “(1×10^7” for “(5×10^6”, “μL;” for “pt;”, “50-65” for “6-10”
as §2, with “NIH-III” for “CD-1”, “SKOV3” for “A431”, “(1×10^7” for “(5×10^6”, “μL;” for “pt;”, “50-65” for “6-10”, “Compounds 42 and 161” for “All compounds”

[17] = Plasma and A431 tumour pharmacokinetics of compounds 11 and 20; settings: NIHIII, mouse, 75 umol/kg
Description: A small piece (˜100 mg) of tissue was placed in biopulveriser well (previously cooled in liquid nitrogen) and reduced to fine powder with a 2-3 strong blows to the stainless steel pestle. The frozen powder was collected in pre-weighed microcentrifuge tube (kept on dry ice). […] The microcentrifuge tubes were spun at 13,000 rpm for 10 min to precipitate the cell debris and proteins. […] The analytes were eluted using a gradient of 0.01% formic acid in acetonitrile (80%)-water (20%) mixture and 0.01% formic acid in water (100%) on Zorbax SB 018, rapid resolution HT 3.0×50 mm, 1.8 micron (Agilent) HPLC column with a flow rate of 0.6 ml/min.

[18] = test system: Erk1/2; settings: EGF-stimulated A431 cells
[19] = test system: SKOV3 cells; experiment: Cellular growth inhibition (sulforhodamine B); format: cell-based, Human; settings: Table 9; for IC50: Homo sapiens, SK-OV-3
[20] = target: T1, erbB2; experiment: Inhibition of basal phospho-erbB2 in SKOV3 cells (Western blot); format: cell-based; set-up: endogenous in cells; host or cells: SKOV3 human ovarian carcinoma cells; settings: SKOV3 cells; read-out: cellular erbB2 IC50
Excerpt: Values are plotted using SigmaPlot 10.

[21] = Plasma and A431 tumour pharmacokinetics of compounds 42 and 161
[22] = test system: H1975 xenografts; experiment: In vivo efficacy in H1975 xenografts; set-up: species or system mice; settings: H1975 xenografts, equitoxic dose 133 (42) and 42.2 (161) μmol/kg/dose, q3dx4, IP
Description: Specific pathogen-free homozygous female NIH-III nude mice (Charles River Laboratories, Wilmington, Mass.) were inoculated subcutaneously with a single cell suspension of H1975 cells (5×10^6 cells/100 μL; right flank). When H1975 tumour xenografts were established (typically 8-12 days) mice were randomized to treatment groups. All compounds were prepared in lactate buffer (pH4). Mice were dosed by intraperitoneal injection (0.01-0.03 ml/g) using the stated schedules and dose levels. For growth delay experiments mice were randomized to treatment and tumor volume [π(length×width^2)/6] and body weight were measured daily following treatment. […] Differences in RTV^4 were tested for statistical difference by Mann Whitney U test using SigmaStat v3.5.

[23] = test system: H1975 cells; experiment: Cellular growth inhibition (sulforhodamine B); format: cell-based, Human; settings: Table 9; for IC50: Homo sapiens, NCI-H1975
Description: as §3, §4
They were then washed free of drug and incubated for a further 4 days, before being stained for cell survival with sulforhodamine B.

[24] = HPLC-MS at 0.95 reducing equivalents
[25] = 24 hour exposure entirely oxic, read-out: Cellular Growth Inhibition IC50 SW620 Oxic
[26] = first 4 hours anoxic, read-out: Cellular Growth Inhibition IC50 SW620 Anoxic
[27] = A-431, 24 h, read-out: Cellular Growth Inhibition IC50 A431 Oxic
[28] = A-431, read-out: Cellular Growth Inhibition IC50 A431 Anoxic
[29] = 24 hour exposure entirely oxic, read-out: Cellular Growth Inhibition IC50 SKBR3 Oxic
[30] = first 4 hours anoxic, read-out: Cellular Growth Inhibition IC50 SKBR3 Anoxic

Cn1cc([N+](=O)[O-])nc1C[N+](C)(C)C/C=C/C(=O)Nc1ccc2ncnc(Nc3cccc(Br)c3)c2c1 [Compound 21, (2E)-4-{[4-(3-bromoanilino)-6-quinazolinyl]amino}-N,N-dimethyl-N-[(1-methyl-4-nitro-1H-imidazol-2-yl)methyl]-4-oxo-2-buten-1-ammonium bromide]
IC50 [1]: 128 nM | IC50 [2]: 76 nM | Effector release/Prodrug loss ([3]; 0.95 reducing equivalents): 0.30 | Detection of MNA (methyl nitroaromatic) ([3]; HPLC-MS): No | % Loss of prodrug [3, 24]: 33% | % Release of effector [3, 24]: 10% | release of effector following 1-electron reduction ([3]; steady state radiolysis, HPLC-MS): not observed | E (1)/V (one-electron reduction potential) [4]: −0.468 V | hypoxia-selective inhibition of p-erbB1 [5]: no apparent hypoxia-selective inhibition | IC50 [6, 25]: 423000 nM | IC50 [6, 26]: 365000 nM | SW620 Deact. [6]: 123 fold | SW620 HCR [6]: 1.2 fold | IC50 [7]: 531 nM | IC50 [8]: 0.53 nM | tumour growth inhibition (TGI) ([9]; q4dx3 at MTD, IP in lactate buffer): 10% | IC50 [10, 27]: 11000 nM | IC50 [10, 28]: 13700 nM | A431 Deact. (fold reduction in oxic growth inhibition relative to parent kinase inhibitor) ([10]; Table 3): 277 fold | A431 HCR (Hypoxic Cytotoxicity Ratio) ([10]; Table 3): 1.3 fold | IC50 [11, 29]: 26900 nM | IC50 [11, 30]: 30000 nM | SKBR3 Deact. [11]: 332 fold | SKBR3 HCR [11]: 0.9 fold | IC50 [12]: 1190 nM | Deact. (fold reduction in cellular erbB1 inhibition relative to the parent kinase inhibitor) ([12]; Table 2, A431 cells): 130 fold

CN(C)C/C=C/C(=O)Nc1ccc2ncnc(Nc3cccc(Br)c3)c2c1 [Compound 11, (2E)-N-[4-(3-bromoanilino)-6-quinazolinyl]-4-(dimethylamino)-2-butenamide, reference compound]
IC50 [1]: 8 nM and 7.7 nM | IC50 [2]: 2.7 nM | AUC(0-t) [13]: 12 µM·h | IC50 [6, 25]: 3430 nM | IC50 [6, 26]: 2890 nM | SW620 HCR [6]: 1.2 fold | MTD [14]: 100 µmol/kg | erbB1 autophosphorylation, cells not washed free of drug [15]: completely inhibited | deaths ([9]; q4dx6, 63% of single dose MTD): 2/12 | deaths ([16]; q3dx6, 133 (20) and 56 (11) umol/kg/dose): 1/7 | half-life ([17]; A431 tumour, intraperitoneal): 9 h | AUC ([17]; plasma, ip): 18 µM·h | IC50 [10, 27]: 40 nM | IC50 [10, 28]: 40 nM | IC50 [11, 29]: 81 nM | IC50 [11, 30]: 141 nM | SKBR3 HCR [11]: 0.6 fold | inhibition of cellular Erk1/2 phosphorylation [18]: potent inhibitor | inhibition of cellular HER1 phosphorylation ([12]; EGF-stimulated A431 cells): potent inhibitor

CN(C)C/C=C/C(=O)Nc1cc2c(Nc3ccc(F)c(Br)c3)ncnc2cn1 [Compound 161, (2E)-N-[4-(3-bromo-4-fluoroanilino)pyrido[3,4-d]pyrimidin-6-yl]-4-(dimethylamino)-2-butenamide]
IC50 ([19]; 24 hour exposure oxic, read-out: Cellular Growth Inhibition IC50 SKOV3 Oxic): 840 nM | IC50 ([19]; first 4 hours anoxic, read-out: Cellular Growth Inhibition IC50 SKOV3 Anoxic): 1310 nM | SKOV3 HCR [19]: 0.8 fold | IC50 [20]: 6 nM | AUC ([21]; female, NIH-III, mouse, plasma, ip, 31.6 umol/kg): 8 µM·h | tumour AUC0-inf ([21]; inhibitor 161 dosed directly at 31.6 umol/kg ip, A431 tumour): 49 µmol·h/kg | tumour growth inhibition (TGI) [22]: 100% | erbB1 autophosphorylation, cells not washed free of drug ([15]; 1 μM, 1 hour exposure, then EGF stimulation): completely inhibited | IC50 ([23]; 24 hour exposure oxic, read-out: Cellular Growth Inhibition IC50 H1975 Oxic): 1260 nM | IC50 ([23]; first 4 hours anoxic, read-out: Cellular Growth Inhibition IC50 H1975 Anoxic): 1400 nM | H1975 HCR [23]: 0.9 fold | deaths ([16]; q3dx9, 100 (42) and 31.6 (161) μmol/kg/dose): 1/7 | IC50 ([10]; A-431, 4 h, read-out: Cellular Growth Inhibition IC50 A431 Anoxic): 28 nM | IC50 [10, 27]: 30 nM | A431 HCR ([10]; Table 9): 1.6 fold | IC50 [12]: 5 nM
